Test results published in patent US10669272B2, “Substituted naphthyridinone compounds useful as T cell activators” (BRISTOL-MYERS SQUIBB COMPANY, priority 2018, dated 2020).
Where two headings read alike, the source gives them in different places.

Assays:
human DGKα = molecular target: T1, human DGKα (Homo sapiens, UniProt P23743); test: DGKα LIPGLO assay (extruded liposome substrate), in vitro DGK inhibition; type: biochemical; details: liposome (LIPGLO) assay; read-out: DGKa LIPGLO IC50
T1 construct: TVMV protease cleavage site (C); Hexa-His (C); made in house; host or cells: Sf9 insect cells (baculovirus, Bac-to-Bac)

Human venous whole blood = test: Human whole blood IFN-γ assay; type: cell-based;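 also: blood from healthy donors exposed to compound for 1 h before stimulation with anti-CD3 and anti-CD28 at 1 µg/mL each, IFN-γ quantified in supernatant by AlphaLISA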
Method: Human Whole Blood IFN-γ Assay
Human venous whole blood (22.5 μL per well), obtained from healthy donors, was pre-treated with compounds for one hour at 37° C. in a humidified 95% air/5% CO2 incubator. The blood was stimulated with 2.5 μL anti-human CD3 and anti-CD28 mAb at a final concentration of 1 μg/mL each for 24 hours at 37° C. IFN-γ in the supernatants was measured using AlphLISA kit (Cat # AL217).

naïve human CD8 T cells = test: Human CD8 T cells IFN-γ assay; type: cell-based; details: read-out: HuCD8 INFG Normalized EC50;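 also: Naïve human CD8 T cells stimulated with plate-bound anti-CD3 and soluble anti-CD28, IFN-γ in supernatant quantified by AlphaLISA and converted to pg/mL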
human DGKζ = molecular target: T2, human DGKζ (Homo sapiens, UniProt Q13574); test: DGKζ LIPGLO assay (extruded liposome substrate), in vitro DGK inhibition; type: biochemical; details: liposome (LIPGLO) assay; read-out: DGKz LIPGLO IC50
T2 construct: TVMV protease cleavage site (C); Hexa-His (C); made in house; host or cells: Sf9 insect cells (baculovirus, Bac-to-Bac)

[1] = human whole blood, normalized to 3 μM reference compound with anti-CD3 plus anti-CD28 as 100% activation, read-out: INFg Whole Blood Normalized Agonist EC50
[2] = normalized to 3 μM reference compound with anti-CD3 plus anti-CD28 as 100% activation
[3] = Homo sapiens, 24 h, human whole blood, normalized to 3 μM reference compound with anti-CD3 plus anti-CD28 as 100% activation, read-out: INFg Whole Blood Normalized Agonist EC50
[4] = Homo sapiens, T-cell, 20 h, normalized to 3 μM reference compound with anti-CD3 plus anti-CD28 as 100% activation
[5] = Homo sapiens, human whole blood, normalized to 3 μM reference compound with anti-CD3 plus anti-CD28 as 100% activation, read-out: INFg Whole Blood Normalized Agonist EC50

T2 sequence (Q13574 with tags, fused parts or gaps isoform Q13574-4): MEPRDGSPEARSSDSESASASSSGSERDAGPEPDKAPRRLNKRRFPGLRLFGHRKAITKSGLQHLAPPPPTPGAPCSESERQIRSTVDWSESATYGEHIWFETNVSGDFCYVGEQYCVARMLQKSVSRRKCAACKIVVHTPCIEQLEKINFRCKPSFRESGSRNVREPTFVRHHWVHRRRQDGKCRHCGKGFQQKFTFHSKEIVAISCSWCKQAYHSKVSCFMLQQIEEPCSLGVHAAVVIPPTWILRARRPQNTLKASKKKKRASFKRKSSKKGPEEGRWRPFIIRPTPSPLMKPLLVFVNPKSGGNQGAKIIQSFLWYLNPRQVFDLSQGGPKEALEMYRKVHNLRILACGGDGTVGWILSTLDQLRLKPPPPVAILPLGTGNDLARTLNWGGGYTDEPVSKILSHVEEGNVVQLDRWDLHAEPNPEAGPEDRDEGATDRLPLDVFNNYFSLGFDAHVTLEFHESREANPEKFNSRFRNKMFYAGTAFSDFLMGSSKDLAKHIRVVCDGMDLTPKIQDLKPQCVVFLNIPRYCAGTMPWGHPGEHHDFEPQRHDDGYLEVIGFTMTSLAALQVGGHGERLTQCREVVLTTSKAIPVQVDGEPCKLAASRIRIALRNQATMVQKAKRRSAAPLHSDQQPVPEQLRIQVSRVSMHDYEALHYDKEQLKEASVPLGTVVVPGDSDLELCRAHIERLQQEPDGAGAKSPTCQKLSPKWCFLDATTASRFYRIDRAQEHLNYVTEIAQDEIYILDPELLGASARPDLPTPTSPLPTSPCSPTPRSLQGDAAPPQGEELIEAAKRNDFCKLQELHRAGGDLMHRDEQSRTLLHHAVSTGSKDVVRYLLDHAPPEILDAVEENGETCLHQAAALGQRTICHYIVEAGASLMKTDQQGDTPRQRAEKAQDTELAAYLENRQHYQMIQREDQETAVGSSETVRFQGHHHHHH
T1 sequence (P23743 with tags, fused parts or gaps): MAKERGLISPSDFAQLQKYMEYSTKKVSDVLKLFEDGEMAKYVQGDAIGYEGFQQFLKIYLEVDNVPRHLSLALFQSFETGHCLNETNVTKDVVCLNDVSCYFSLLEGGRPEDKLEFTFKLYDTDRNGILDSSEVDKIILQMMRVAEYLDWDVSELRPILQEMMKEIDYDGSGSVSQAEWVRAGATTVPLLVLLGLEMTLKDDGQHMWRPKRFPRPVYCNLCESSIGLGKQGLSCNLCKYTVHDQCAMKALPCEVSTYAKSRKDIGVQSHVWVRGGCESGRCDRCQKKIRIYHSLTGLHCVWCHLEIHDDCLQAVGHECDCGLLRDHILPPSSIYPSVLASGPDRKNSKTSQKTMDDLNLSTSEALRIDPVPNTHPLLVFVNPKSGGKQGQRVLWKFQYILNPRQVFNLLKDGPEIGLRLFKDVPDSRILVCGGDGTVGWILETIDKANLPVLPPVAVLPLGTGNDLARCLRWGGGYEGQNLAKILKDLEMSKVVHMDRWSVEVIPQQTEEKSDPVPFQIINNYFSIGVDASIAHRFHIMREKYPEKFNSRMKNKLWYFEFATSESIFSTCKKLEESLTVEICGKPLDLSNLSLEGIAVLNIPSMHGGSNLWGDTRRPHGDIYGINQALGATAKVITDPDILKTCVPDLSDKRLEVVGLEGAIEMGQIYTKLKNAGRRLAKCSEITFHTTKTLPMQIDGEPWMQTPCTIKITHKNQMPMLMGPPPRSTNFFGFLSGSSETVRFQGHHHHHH

Cc1cccc(C(c2ccc(F)cc2)N2C[C@H](C)N(c3cc(=O)n(C)c4ccc(C#N)nc34)C[C@H]2C)n1 (single isomer, unassigned) [Example 203]
IC50 (human DGKα): 190 nM | EC50 (Human venous whole blood; [1]): 290 nM | EC50 (naïve human CD8 T cells; [2]): 32 nM | IC50 (human DGKζ): 29 nM

C[C@@H]1CN(c2cc(=O)n(C)c3ccc(C#N)nc23)[C@@H](C)CN1C(c1ccc(Cl)cc1)c1ccc2c(c1)OC(F)(F)O2 (single isomer, unassigned) [Example 657]
IC50 (human DGKα): 2400 nM | EC50 (Human venous whole blood; [3]): 660 nM | EC50 (naïve human CD8 T cells; [4]): 27 nM | IC50 (human DGKζ): 1600 nM

Cc1cccc(F)c1CN1C[C@H](C)N(c2cc(=O)n(C)c3ccc(C#N)nc23)C[C@H]1C [Example 255, 8-[(2S,5R)-4-[(2-fluoro-6-methylphenyl)methyl]-2,5-dimethylpiperazin-1-yl]-5-methyl-6-oxo-5,6-dihydro-1,5-naphthyridine-2-carbonitrile]
IC50 (human DGKα): 770 nM | EC50 (Human venous whole blood; [3]): 3200 nM | EC50 (naïve human CD8 T cells; [4]): 180 nM | IC50 (human DGKζ): 1700 nM

Cc1ccc(C(c2cccc(F)c2)N2C[C@H](C)N(c3cc(=O)n(C)c4ccc(C#N)nc34)C[C@H]2C)nc1 (single isomer, unassigned) [Example 216]
IC50 (human DGKα): 180 nM | EC50 (Human venous whole blood; [1]): 130 nM | EC50 (naïve human CD8 T cells; [2]): 74 nM | IC50 (human DGKζ): 210 nM

CCc1cc(F)ccc1C(c1ccc(Cl)cc1)N1C[C@H](C)N(c2cc(=O)n(C)c3ccc(C#N)nc23)C[C@H]1C (single isomer, unassigned) [Example 225]
EC50 (Human venous whole blood; [1]): 7600 nM | EC50 (naïve human CD8 T cells; [4]): 61 nM | IC50 (human DGKζ): 570 nM

Cn1c(=O)cc(N2CCN(C(c3ccc(F)cc3)c3ccc(F)cc3)CC2CF)c2nc(C#N)ccc21 (single isomer, unassigned) [Example 151, 8-(4-(bis(4-fluorophenyl)methyl)-2-(fluoromethyl)piperazin-1-yl)-5-methyl-6-oxo-5,6-dihydro-1,5-naphthyridine-2-carbonitrile]
IC50 (human DGKα): 3600 nM | EC50 (naïve human CD8 T cells; [2]): 150 nM | IC50 (human DGKζ): 8800 nM

C[C@@H]1CN(c2c(C#N)c(=O)n(C)c3ccc(C#N)nc23)CCN1C(c1ccccc1)c1ccc(Cl)cc1 (single isomer, unassigned) [Example 886]
EC50 (Human venous whole blood; read-out: INFg Whole Blood Normalized Agonist EC50, human whole blood, anti-CD3 plus anti-CD28, 24 hours, 3 μM reference compound = 100% activation): 600 nM | EC50 (naïve human CD8 T cells; Homo sapiens, T-cell, 20 h, naïve human CD8 T cells, anti-CD3 plus anti-CD28, 3 μM reference compound = 100% activation): 9.6 nM

Cn1c(=O)cc(N2CCN(C(c3ccc(F)cc3)c3ccc(F)cc3)CC2CO)c2nc(C#N)ccc21 (racemic) [Example 146, 8-(4-(bis(4-fluorophenyl)methyl)-2-(hydroxymethyl)piperazin-1-yl)-5-methyl-6-oxo-5,6-dihydro-1,5-naphthyridine-2-carbonitrile]
IC50 (human DGKα): 84000 nM | EC50 (naïve human CD8 T cells; [4]): 660 nM | IC50 (human DGKζ): 14000 nM

COc1cc(F)ccc1C(c1ccc(F)cc1)N1C[C@H](C)N(c2c(C#N)c(=O)n(C)c3ccc(C#N)nc23)C[C@H]1C (single isomer, unassigned) [Example 111]
IC50 (human DGKα): 62000 nM | EC50 (naïve human CD8 T cells; [4]): 73 nM | IC50 (human DGKζ): 1600 nM

C[C@@H]1CN(c2cc(=O)n(C)c3ccc(C#N)nc23)[C@@H](C)CN1C(c1ccccc1)c1ccccc1 [Example 237, 8-[(2S,5R)-4-(diphenylmethyl)-2,5-dimethylpiperazin-1-yl]-5-methyl-6-oxo-5,6-dihydro-1,5-naphthyridine-2-carbonitrile]
IC50 (human DGKα): 930 nM | EC50 (naïve human CD8 T cells; [4]): 39 nM | IC50 (human DGKζ): 1400 nM

CCC(c1ccc(F)cc1F)N1C[C@H](C)N(c2cc(=O)n(C)c3ccc(C#N)nc23)C[C@H]1C (single isomer, unassigned) [Example 338]
EC50 (Human venous whole blood; [5]): 130 nM | EC50 (naïve human CD8 T cells; [4]): 20 nM

Cn1c(=O)c(C#N)c(N2CCN(C(c3ccc(F)cc3)c3ccc(F)cc3)C(CO)C2)c2nc(Br)ccc21 (stereo not drawn) [Example 17, 4-(4-(bis(4-fluorophenyl)methyl)-3-(hydroxymethyl)piperazin-1-yl)-6-bromo-1-methyl-2-oxo-1,2-dihydro-1,5-naphthyridine-3-carbonitrile]
IC50 (human DGKα): 2300 nM | EC50 (naïve human CD8 T cells; [4]): 6500 nM | IC50 (human DGKζ): 19000 nM

C[C@@H]1CN(c2c(C#N)c(=O)n(C)c3ccc(Br)nc23)[C@@H](C)CN1C(c1ccc(F)cc1)c1ccc(F)cc1 [Example 158, 4-((2S,5R)-4-(bis(4-fluorophenyl)methyl)-2,5-dimethylpiperazin-1-yl)-6-bromo-1-methyl-2-oxo-1,2-dihydro-1,5-naphthyridine-3-carbonitrile]
IC50 (human DGKα): 3600 nM | EC50 (naïve human CD8 T cells; [4]): 110 nM | IC50 (human DGKζ): 13000 nM

C[C@@H]1CN(c2cc(=O)n(C)c3ccc(C#N)nc23)[C@@H](C)CN1Cc1c(F)cc(C#N)cc1F [Example 267, 8-[(2S,5R)-4-[(4-cyano-2,6-difluorophenyl)methyl]-2,5-dimethylpiperazin-1-yl]-5-methyl-6-oxo-5,6-dihydro-1,5-naphthyridine-2-carbonitrile]
IC50 (human DGKα): 390 nM | EC50 (naïve human CD8 T cells; [4]): 10000 nM | IC50 (human DGKζ): 1600 nM

COc1ccc2c(n1)c(N1C[C@@H](C)N(C(c3ccccc3)c3ccc(F)cc3)C[C@@H]1C)cc(=O)n2C (single isomer, unassigned) [Example 239]
IC50 (human DGKα): 5900 nM | EC50 (naïve human CD8 T cells; [2]): 10000 nM | IC50 (human DGKζ): 64000 nM

CCC(c1ccc(F)cc1F)N1C[C@H](C)N(c2cc(=O)n(C)c3ccc(C#N)nc23)C[C@H]1C (mixture of isomers) [Example 337, 8-((2S,5R)-4-(1-(2,4-difluorophenyl)propyl)-2,5-dimethylpiperazin-1-yl)-5-methyl-6-oxo-5,6-dihydro-1,5-naphthyridine-2-carbonitrile]
EC50 (Human venous whole blood; [5]): 440 nM | EC50 (naïve human CD8 T cells; [4]): 48 nM

COC(=O)C1CN(c2cc(=O)n(C)c3ccc(C#N)nc23)CCN1C(c1ccc(F)cc1)c1ccc(F)cc1OC (single isomer, unassigned) [Example 68, Methyl 4-(6-cyano-1-methyl-2-oxo-1,2-dihydro-1,5-naphthyridin-4-yl)-1-((4-fluoro-2-methoxyphenyl)(4-fluorophenyl)methyl)piperazine-2-carboxylate]
IC50 (human DGKα): 18000 nM | EC50 (naïve human CD8 T cells; [2]): 11 nM | IC50 (human DGKζ): 250 nM

C[C@@H]1CN(C(c2ccc(F)cc2)c2ccc(F)cc2)[C@@H](C)CN1c1c(C#N)c(=O)n(C)c2ccc(C#N)nc12 [Example 6, 8-((2R,5S)-4-(bis(4-fluorophenyl)methyl)-2,5-dimethylpiperazin-1-yl)-5-methyl-6-oxo-5,6-dihydro-1,5-naphthyridine-2,7-dicarbonitrile]
IC50 (human DGKα): 25000 nM | EC50 (naïve human CD8 T cells; [4]): 560 nM | IC50 (human DGKζ): 16000 nM

C[C@@H]1CN(c2cc(=O)n(C)c3ccc(C#N)nc23)[C@@H](C)CN1C(c1ccc(F)cc1)c1ccccc1F (stereo partly drawn) [Example 284, 8-[(2S,5R)-4-[(2-fluorophenyl)(4-fluorophenyl)methyl]-2,5-dimethylpiperazin-1-yl]-5-methyl-6-oxo-5,6-dihydro-1,5-naphthyridine-2-carbonitrile]
EC50 (Human venous whole blood; Homo sapiens, 24 h, read-out: INFg Whole Blood Normalized Agonist EC50, human whole blood, normalized to 3 μM reference compound with anti-CD3 plus anti-CD28 as 100% activation): 780 nM | EC50 (naïve human CD8 T cells; [4]): 36 nM

Cn1c(=O)cc(N2CCN(C(c3ccc(F)cc3)c3ccc(F)cc3)C(C(N)=O)C2)c2nc(C#N)ccc21 (single isomer, unassigned) [Example 41, 1-(bis(4-fluorophenyl)methyl)-4-(6-cyano-1-methyl-2-oxo-1,2-dihydro-1,5-naphthyridin-4-yl)piperazine-2-carboxamide]
IC50 (human DGKα): 14000 nM | EC50 (naïve human CD8 T cells; [2]): 1500 nM | IC50 (human DGKζ): 46000 nM

Cn1c(=O)c(C#N)c(N2CCN(C(c3ccc(F)cc3)c3ccc(F)cc3)C(C(=O)NC3CC3)C2)c2nc(C#N)ccc21 (single isomer, unassigned) [Example 61, 1-(bis(4-fluorophenyl)methyl)-N-cyclopropyl-4-(3,6-dicyano-1-methyl-2-oxo-1,2-dihydro-1,5-naphthyridin-4-yl)piperazine-2-carboxamide]
IC50 (human DGKα): 240000 nM | EC50 (naïve human CD8 T cells; [2]): 10000 nM | IC50 (human DGKζ): 170000 nM

COC(=O)C1CN(c2c(F)c(=O)n(C)c3ccc(C#N)nc23)CCN1C(c1ccc(Cl)cc1)c1ccc(Cl)cc1 (single isomer, unassigned) [Example 95, methyl 1-(bis(4-chlorophenyl)methyl)-4-(6-cyano-3-fluoro-1-methyl-2-oxo-1,2-dihydro-1,5-naphthyridin-4-yl)piperazine-2-carboxylate]
IC50 (human DGKα): 2600 nM | EC50 (naïve human CD8 T cells; [2]): 21 nM | IC50 (human DGKζ): 760 nM

Cn1c(=O)cc(N2CCN(C(c3ccc(F)cc3)c3ccc(F)cc3)C(C(=O)NC3CC3)C2)c2nc(C#N)ccc21 (racemic) [Example 46, 1-(bis(4-fluorophenyl)methyl)-4-(6-cyano-1-methyl-2-oxo-1,2-dihydro-1,5-naphthyridin-4-yl)-N-cyclopropylpiperazine-2-carboxamide]
IC50 (human DGKα): 240000 nM | EC50 (naïve human CD8 T cells; [4]): 4700 nM | IC50 (human DGKζ): 3500 nM

Cn1c(=O)cc(N2CCN(C(c3ccc(F)cc3)c3ccc(F)cc3)CC2C(N)=O)c2nc(C#N)ccc21 (single isomer, unassigned) [Example 142, 4-(bis(4-fluorophenyl)methyl)-1-(6-cyano-1-methyl-2-oxo-1,2-dihydro-1,5-naphthyridin-4-yl)piperazine-2-carboxamide]
IC50 (human DGKα): 40000 nM | EC50 (naïve human CD8 T cells; [4]): 10000 nM | IC50 (human DGKζ): 65000 nM
